pEC50: −log10 of the molar value. Where two headings read alike, the source gives them in different places.
Tested on: HCV pseudoparticles (genotype 1a HCV E1 and E2 envelope, H77C isolate)
Assay: microbe, parasite or virus in culture
Assay type: cell-based
Details: Hepatitis C virus, Huh-7, 48 h
[1] = read-out: Activity (EC50 class), HCV pseudoparticle infection of Huh7 cells, luciferase 2 days after infection, EC50 expressed as class A/B
[2] = HCV pseudoparticle infection of Huh7 cells, luciferase 2 days after infection, average of duplicates

Compound	pEC50 [1]	pEC50 [2]	pEC50 (GETYPE1A, read-out: Activity (EC50 class), HCV pseudoparticle infection of Huh7 cells, luciferase 2 days after infection, EC50 expressed as class A/B)
NC(=O)C(=O)N1CCCC(C(NC(=O)c2ccc(Nc3nc(NC4(c5ccc(Cl)cc5)CC4)nc(OCC(F)(F)F)n3)cc2)C(=O)O)C1 (stereo not drawn) [Compound 1018, 2-(1-(2-amino-2-oxoacetyl)piperidin-3-yl)-2-(4-(4-(1-(4-chlorophenyl)cyclopropylamino)-6-(2,2,2-trifluoroethoxy)-1,3,5-triazin-2-ylamino)benzamido)acetic acid]	8.00 to 11.00	–	–
CCCNC(=O)C(NC(=O)c1ccc(Nc2nc(NC3(c4ccc(Cl)cc4)CC3)nc(OCC(F)(F)F)n2)cc1)C1CCCN(C(=O)C(N)=O)C1 (stereo not drawn) [Compound 1019, N-(1-(1-(2-amino-2-oxoacetyl)piperidin-3-yl)-2-oxo-2-(propylamino)ethyl)-4-(4-(1-(4-chlorophenyl)cyclopropylamino)-6-(2,2,2-trifluoroethoxy)-1,3,5-triazin-2-ylamino)benzamide]	8.00 to 11.00	–	–
CCOC(=O)[C@H](CNC(=O)C(=O)N(C)C)NC(=O)c1ccc(Nc2nc(NC3(c4ccc(Cl)cc4)CC3)nc(OCC(F)(F)F)n2)cc1 [Compound 1020, (S)-ethyl 2-(4-(4-(1-(4-chlorophenyl)cyclopropylamino)-6-(2,2,2-trifluoroethoxy)-1,3,5-triazin-2-ylamino)benzamido)-3-(2-(dimethylamino)-2-oxoacetamido)propanoate]	8.00 to 11.00	–	–
CC(C)OC(=O)[C@H](CNC(=O)C(=O)N(C)C)NC(=O)c1ccc(Nc2nc(NC3(c4ccc(Cl)cc4)CC3)nc(OCC(F)(F)F)n2)cc1 [Compound 1021, (S)-isopropyl 2-(4-(4-(1-(4-chlorophenyl)cyclopropylamino)-6-(2,2,2-trifluoroethoxy)-1,3,5-triazin-2-ylamino)benzamido)-3-(2-(dimethylamino)-2-oxoacetamido)propanoate]	8.00 to 11.00	–	–
CN(C)C(=O)C(=O)NC[C@H](NC(=O)c1ccc(Nc2nc(NC3(c4ccc(Cl)cc4)CC3)nc(OCC(F)(F)F)n2)cc1)C(=O)OCCN1CCOCC1 [Compound 1022, (S)-2-morpholinoethyl 2-(4-(4-(1-(4-chlorophenyl)cyclopropylamino)-6-(2,2,2-trifluoroethoxy)-1,3,5-triazin-2-ylamino)benzamido)-3-(2-(dimethylamino)-2-oxoacetamido)propanoate]	8.00 to 11.00	8.15	–
CN(C)C(=O)C(=O)NC[C@H](NC(=O)c1ccc(Nc2nc(NC3(c4ccc(Cl)cc4)CC3)nc(OCC(F)(F)F)n2)cc1)C(=O)OCCOCCO [Compound 1023, (S)-2-(2-hydroxyethoxy)ethyl 2-(4-(4-(1-(4-chlorophenyl)cyclopropylamino)-6-(2,2,2-trifluoroethoxy)-1,3,5-triazin-2-ylamino)benzamido)-3-(2-(dimethylamino)-2-oxoacetamido)propanoate]	8.00 to 11.00	–	–
CCOC(=O)[C@H](CNC(=O)C(=O)NC)NC(=O)c1ccc(Nc2nc(NC3(c4ccc(Cl)cc4)CC3)nc(OCC(F)(F)F)n2)cc1 [Compound 1024, (S)-ethyl 2-(4-(4-(1-(4-chlorophenyl)cyclopropylamino)-6-(2,2,2-trifluoroethoxy)-1,3,5-triazin-2-ylamino)benzamido)-3-(2-(methylamino)-2-oxoacetamido)propanoate]	8.00 to 11.00	–	–
CCOC(=O)[C@H](CNC(=O)C(N)=O)NC(=O)c1ccc(Nc2nc(NC3(c4ccc(Cl)cc4)CC3)nc(OCC(F)(F)F)n2)cc1 [Compound 1025, (S)-ethyl 3-(2-amino-2-oxoacetamido)-2-(4-(4-(1-(4-chlorophenyl)cyclopropylamino)-6-(2,2,2-trifluoroethoxy)-1,3,5-triazin-2-ylamino)benzamido)propanoate]	8.00 to 11.00	8.76	–
CCOC(=O)[C@H](CCNC(=O)C(=O)N(C)C)NC(=O)c1ccc(Nc2nc(NC3(c4ccc(Cl)cc4)CC3)nc(OCC(F)(F)F)n2)cc1 [Compound 1026, (S)-ethyl 2-(4-(4-(1-(4-chlorophenyl)cyclopropylamino)-6-(2,2,2-trifluoroethoxy)-1,3,5-triazin-2-ylamino)benzamido)-4-(2-(dimethylamino)-2-oxoacetamido)butanoate]	8.00 to 11.00	8.57	–
CCOC(=O)[C@H](CCNC(=O)C(=O)NC)NC(=O)c1ccc(Nc2nc(NC3(c4ccc(Cl)cc4)CC3)nc(OCC(F)(F)F)n2)cc1 [Compound 1027, (S)-ethyl 2-(4-(4-(1-(4-chlorophenyl)cyclopropylamino)-6-(2,2,2-trifluoroethoxy)-1,3,5-triazin-2-ylamino)benzamido)-4-(2-(methylamino)-2-oxoacetamido)butanoate]	8.00 to 11.00	–	–
CCOC(=O)[C@H](CCNC(=O)C(N)=O)NC(=O)c1ccc(Nc2nc(NC3(c4ccc(Cl)cc4)CC3)nc(OCC(F)(F)F)n2)cc1 [Compound 1028, (S)-ethyl 4-(2-amino-2-oxoacetamido)-2-(4-(4-(1-(4-chlorophenyl)cyclopropylamino)-6-(2,2,2-trifluoroethoxy)-1,3,5-triazin-2-ylamino)benzamido)butanoate]	8.00 to 11.00	9.40	–
CCOC(=O)[C@H](CCCNC(=O)C(N)=O)NC(=O)c1ccc(Nc2nc(NC3(c4ccc(Cl)cc4)CC3)nc(OCC(F)(F)F)n2)cc1 [Compound 1029, (S)-ethyl 5-(2-amino-2-oxoacetamido)-2-(4-(4-(1-(4-chlorophenyl)cyclopropylamino)-6-(2,2,2-trifluoroethoxy)-1,3,5-triazin-2-ylamino)benzamido)pentanoate]	8.00 to 11.00	–	–
CCOC(=O)[C@H](CCCNC(=O)C(=O)NC)NC(=O)c1ccc(Nc2nc(NC3(c4ccc(Cl)cc4)CC3)nc(OCC(F)(F)F)n2)cc1 [Compound 1030, (S)-ethyl 2-(4-(4-(1-(4-chlorophenyl)cyclopropylamino)-6-(2,2,2-trifluoroethoxy)-1,3,5-triazin-2-ylamino)benzamido)-5-(2-(methylamino)-2-oxoacetamido)pentanoate]	8.00 to 11.00	–	–
CCOC(=O)[C@H](CCCNC(=O)C(=O)N(C)C)NC(=O)c1ccc(Nc2nc(NC3(c4ccc(Cl)cc4)CC3)nc(OCC(F)(F)F)n2)cc1 [Compound 1031, (S)-ethyl 2-(4-(4-(1-(4-chlorophenyl)cyclopropylamino)-6-(2,2,2-trifluoroethoxy)-1,3,5-triazin-2-ylamino)benzamido)-5-(2-(dimethylamino)-2-oxoacetamido)pentanoate]	8.00 to 11.00	–	–
CC(C)(CNC(=O)C(=O)NCC1CC1)CNC(=O)c1ccc(Nc2nc(NC3(c4ccc(Cl)cc4)CC3)nc(OCC(F)(F)F)n2)cc1 [Compound 1032]	–	–	8.00 to 11.00
CC(C)(CNC(=O)C(=O)NC1CCCCCC1)CNC(=O)c1ccc(Nc2nc(NC3(c4ccc(Cl)cc4)CC3)nc(OCC(F)(F)F)n2)cc1 [Compound 1033, N1-(3-(4-(4-(1-(4-chlorophenyl)cyclopropylamino)-6-(2,2,2-trifluoroethoxy)-1,3,5-triazin-2-ylamino)benzamido)-2,2-dimethylpropyl)-N2-cycloheptyloxalamide]	8.00 to 11.00	–	–
CC(C)(CNC(=O)C(=O)NCc1ccc(F)cc1F)CNC(=O)c1ccc(Nc2nc(NC3(c4ccc(Cl)cc4)CC3)nc(OCC(F)(F)F)n2)cc1 [Compound 1034, N1-(3-(4-(4-(1-(4-chlorophenyl)cyclopropylamino)-6-(2,2,2-trifluoroethoxy)-1,3,5-triazin-2-ylamino)benzamido)-2,2-dimethylpropyl)-N2-(2,4-difluorobenzyl)oxalamide]	8.00 to 11.00	–	–

Source: patent publication US8916702B2 (priority 2012, dated 2014)
